Patent US12441710B2, “Substituted piperidino compounds and related methods of treatment” (Alkermes, Inc., priority 2020, dated 2025)

Molecular target: T1, human orexin-2 receptor (OX2R) (Homo sapiens, UniProt O43614)
T1 construct: expressed in transfected cells
T1 sequence (O43614 1-444): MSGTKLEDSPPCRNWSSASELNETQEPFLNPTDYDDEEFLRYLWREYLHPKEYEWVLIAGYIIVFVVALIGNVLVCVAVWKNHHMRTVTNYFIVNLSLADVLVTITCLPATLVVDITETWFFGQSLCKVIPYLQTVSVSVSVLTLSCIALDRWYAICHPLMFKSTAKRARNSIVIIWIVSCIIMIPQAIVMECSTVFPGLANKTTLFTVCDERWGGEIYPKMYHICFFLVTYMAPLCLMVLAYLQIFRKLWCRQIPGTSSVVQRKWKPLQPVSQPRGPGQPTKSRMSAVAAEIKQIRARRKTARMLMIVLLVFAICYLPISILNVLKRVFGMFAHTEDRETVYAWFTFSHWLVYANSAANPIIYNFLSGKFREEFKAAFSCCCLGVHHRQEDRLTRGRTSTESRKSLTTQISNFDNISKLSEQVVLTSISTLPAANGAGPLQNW
Test: Human OX2R IP1 assay
Type: cell-based
Conditions: T-Rex CHO cells stably overexpressing human OX2R; IP1 accumulation, 1 hr at 37 degrees C
Description: T-Rex CHO cells stably overexpressing the human orexin-2 receptor (OX2R) were induced overnight with 1 μg/mL of doxycycline in a T225 flask. 24 hours post induction, cells were lifted with accutase and plated into a 384-well proxy plate at 30,000 cells/well. Cells were then treated with different test compounds in 1× stimulation buffer containing 10 mM Hepes, 1 mM CaCl2), 0.5 mM MgCl2, 4.2 mM KCl, 146 mM NaCl, 5.5 mM glucose, and 50 mM LiCl, pH 7.4, for 1 hr at 37 degrees C. Following incubation, the reaction was terminated by the addition of detection mix, which is composed of IP1-d2 and anti-IP1-cryptate diluted in lysis buffer as well as 1× stimulation buffer. The plates were allowed to incubate for 1 hour at room temperature and were then read in the EnVision® multimode plate reader, measuring inositol phosphate levels.
Cisbio IP1 is a cell-based functional assay quantifying the accumulation of inositol monophosphate (IP), a metabolite released as a result of orexin 2 receptor activation through the phospholipase C-Gq signaling pathway. This is a competitive immunoassay in which the IP1 produced by the cells upon receptor activation competes with the IP1 analog coupled to the d2 fluorophore (acceptor) for binding to an anti-IP1 monoclonal antibody labeled with Eu cryptate (donor). The measured HTRF-FRET based signal is inversely proportional to the IP1 concentration produced.
The EC50 values reported in Table 2 were obtained according to the human OX2R IP1 assay described above. Data are the mean EC50 values±S.E.M. The compound methyl (2R,3S)-3-((methylsulfonyl)amino)-2-(((cis-4-phenylcyclohexyl)oxy)methyl)-piperidine-1-carboxylate (sometimes referred to herein as Reference Compound A) is a reference compound which is disclosed in Example 5 of PCT publication no. WO2017/135306.

SMILES | EC50
CS(=O)(=O)N[C@H]1CCN(c2ncccn2)C[C@H]1CO[C@H]1CC[C@@H](c2ccccc2)CC1 [Compound 19] | < 100 nM
CS(=O)(=O)N[C@H]1CCN(c2ccccn2)C[C@H]1CO[C@H]1CC[C@@H](c2cncnc2)CC1 [Compound 12] | > 1000 nM
Cc1cc(C)cc([C@H]2CC[C@@H](OC[C@@H]3CN(c4ccccn4)CC[C@@H]3NS(C)(=O)=O)CC2)c1 [Compound 18] | < 100 nM
CS(=O)(=O)N[C@H]1CCN(c2ccccn2)C[C@H]1CO[C@H]1CC[C@@H](c2ccc(F)cc2)CC1 [Compound 7] | < 100 nM
CS(=O)(=O)N[C@H]1CCN(c2ccccn2)C[C@H]1CO[C@H]1CC[C@@H](c2cnccn2)CC1 [Compound 9] | > 1000 nM
CS(=O)(=O)N[C@H]1CCN(c2cnccn2)C[C@H]1CO[C@H]1CC[C@@H](c2ccccc2)CC1 [Compound 21] | < 100 nM
CS(=O)(=O)N[C@H]1CCN(c2ccccn2)C[C@H]1CO[C@H]1CC[C@@H](c2ccnnc2)CC1 [Compound 13] | > 1000 nM
Cc1cccc([C@H]2CC[C@@H](OC[C@@H]3CN(c4ccccn4)CC[C@@H]3NS(C)(=O)=O)CC2)c1C [Compound 17] | < 100 nM
CS(=O)(=O)N[C@H]1CCN(c2ccccn2)C[C@H]1CO[C@H]1CC[C@@H](c2ccccc2F)CC1 [Compound 5] | < 100 nM
CS(=O)(=O)N[C@H]1CCN(c2ccncn2)C[C@H]1CO[C@H]1CC[C@@H](c2ccccc2)CC1 [Compound 20] | < 100 nM
Cc1cccc([C@H]2CC[C@@H](OC[C@@H]3CN(c4ccccn4)CC[C@@H]3NS(C)(=O)=O)CC2)c1 [Compound 16] | < 100 nM
CS(=O)(=O)N[C@H]1CCN(c2cccnn2)C[C@H]1CO[C@H]1CC[C@@H](c2ccccc2)CC1 [Compound 22] | < 100 nM
CS(=O)(=O)N[C@H]1CCN(c2ccccn2)C[C@H]1CO[C@H]1CC[C@@H](c2cccnc2)CC1 [Compound 3] | < 100 nM
CS(=O)(=O)N[C@H]1CCN(c2ncccc2C(F)(F)F)C[C@H]1CO[C@H]1CC[C@@H](c2ccccc2)CC1 [Compound 28] | < 100 nM
CS(=O)(=O)N[C@H]1CCN(c2ccccn2)C[C@H]1CO[C@H]1CC[C@@H](c2ccncn2)CC1 [Compound 8] | > 1000 nM
CS(=O)(=O)N[C@H]1CCN(c2ccccn2)C[C@H]1CO[C@H]1CC[C@@H](c2ncccn2)CC1 [Compound 11] | > 1000 nM
CS(=O)(=O)N[C@H]1CCN(c2ncccc2F)C[C@H]1CO[C@H]1CC[C@@H](c2ccccc2)CC1 [Compound 26] | < 100 nM
CS(=O)(=O)N[C@H]1CCN(c2ccccn2)C[C@H]1CO[C@H]1CC[C@@H](c2ccncc2)CC1 [Compound 4] | < 100 nM
CS(=O)(=O)N[C@H]1CCN(c2ccccn2)C[C@H]1CO[C@H]1CC[C@@H](c2ccccc2)CC1 [Compound 10] | < 100 nM
CS(=O)(=O)N[C@H]1CCN(c2ccccn2)C[C@H]1CO[C@H]1CC[C@@H](c2cccnn2)CC1 [Compound 14] | > 1000 nM
Cc1ccccc1[C@H]1CC[C@@H](OC[C@@H]2CN(c3ccccn3)CC[C@@H]2NS(C)(=O)=O)CC1 [Compound 15] | < 100 nM
CS(=O)(=O)N[C@H]1CCN(c2cccc(F)n2)C[C@H]1CO[C@H]1CC[C@@H](c2ccccc2)CC1 [Compound 23] | < 100 nM
CS(=O)(=O)N[C@H]1CCN(c2ncccc2O)C[C@H]1CO[C@H]1CC[C@@H](c2ccccc2)CC1 [Compound 27] | < 100 nM
CS(=O)(=O)N[C@H]1CCN(c2ccc(F)cn2)C[C@H]1CO[C@H]1CC[C@@H](c2ccccc2)CC1 [Compound 24] | < 100 nM
CS(=O)(=O)N[C@H]1CCN(c2ccccn2)C[C@H]1CO[C@H]1CC[C@@H](c2ccccn2)CC1 [Compound 2] | < 100 nM

Next, values leading:

EC50 | SMILES
< 100 nM | C[C@@]1(CO[C@H]2CC[C@@H](c3ccccc3)CC2)CN(c2ccccn2)CC[C@@H]1NS(C)(=O)=O [Compound 29]
> 1000 nM | CS(=O)(=O)N[C@H]1CCN(c2cccc3ccnn23)C[C@H]1CO[C@H]1CC[C@@H](c2ccccc2)CC1 [Compound 42]
100 to 1000 nM | CS(=O)(=O)N[C@H]1CCN(c2ccccn2)C[C@H]1CO[C@H]1CC[C@@H](c2ccccc2O)CC1 [Compound 30]
< 100 nM | CS(=O)(=O)N[C@H]1CCN(c2ccccn2)C[C@H]1CO[C@H]1CC[C@@H](c2cccc(C#N)c2)CC1 [Compound 35]
100 to 1000 nM | CS(=O)(=O)N[C@H]1CCN(c2nccc3ncnn23)C[C@H]1CO[C@H]1CC[C@@H](c2ccccc2)CC1 [Compound 44]
< 100 nM | CS(=O)(=O)N[C@H]1CCN(c2nccc3ocnc23)C[C@H]1CO[C@H]1CC[C@@H](c2ccccc2)CC1 [Compound 45]
< 100 nM | CS(=O)(=O)N[C@H]1CCN(c2ccccn2)C[C@H]1CO[C@H]1CC[C@@H](c2ccc(O)cc2)CC1 [Compound 32]
> 1000 nM | CS(=O)(=O)N[C@H]1CCN(Cc2ccncc2)C[C@H]1CO[C@H]1CC[C@@H](c2ccccc2)CC1 [Compound 41]
> 1000 nM | CS(=O)(=O)N[C@H]1CCN(Cc2cccnc2)C[C@H]1CO[C@H]1CC[C@@H](c2ccccc2)CC1 [Compound 40]
100 to 1000 nM | CS(=O)(=O)N[C@H]1CCN(c2ccccn2)C[C@H]1CO[C@H]1CC[C@@H](c2cccc(C(F)(F)F)c2)CC1 [Compound 33]
> 1000 nM | CS(=O)(=O)N[C@H]1CCN(Cc2ccccc2)C[C@H]1CO[C@H]1CC[C@@H](c2ccccc2)CC1 [Compound 36]
< 100 nM | CS(=O)(=O)N[C@H]1CCN(c2ccccn2)C[C@H]1CO[C@H]1CC[C@@H](c2cccc(O)c2)CC1 [Compound 31]
> 1000 nM | CS(=O)(=O)N[C@H]1CCN(c2cccc3ncnn23)C[C@H]1CO[C@H]1CC[C@@H](c2ccccc2)CC1 [Compound 43]
> 1000 nM | CS(=O)(=O)N[C@H]1CCN(Cc2ccccn2)C[C@H]1CO[C@H]1CC[C@@H](c2ccccc2)CC1 [Compound 39]
